Assay results reported in ChEMBL document CHEMBL1141345, “Bacillamides from a hypersaline microbial mat bacterium” (J Nat Prod, 2007).
Activity calls are given as the source filed them.

Tests used:
Bacillus endophyticus = assay: Antimicrobial activity against Bacillus endophyticus SP31 isolate at <500 uM by broth dilution assay; type: functional; settings: Priestia endophytica
Staphylococcus aureus [1] = assay: Growth inhibition of methicillin-resistant Staphylococcus aureus; type: functional, organism-based
Staphylococcus aureus [2] = assay: Reduction of alpha-toxin secretion in biofilm-forming methicillin-resistant Staphylococcus aureus at <150 uM; type: functional, organism-based

Measured: Activity

CC(=O)c1nc(C(=O)NCCc2c[nH]c3ccccc23)cs1
inactive: all assays above

CC(=O)N[C@H](C)c1nc(C(=O)NCCc2c[nH]c3ccccc23)cs1
inactive: all assays above

C[C@@H](O)c1nc(C(=O)NCCc2c[nH]c3ccccc23)cs1
inactive: all assays above
